Results taken from PMC11796312, “Multifunctional, Fluorene‐Based Modulator of Cholinergic and GABAergic Neurotransmission as a Novel Drug Candidate for Palliative Treatment of Alzheimer's Disease” (Angewandte Chemie (International Ed. in English), 2024).
Where “and” joins values, the source holds several entries; their conditions need not be identical. Identical values can stand only once. Like-named read-outs stand apart in the source and are kept apart here.

Experiments:
[1] = Cell viability, PrestoBlue (immunotoxicity); assay type: cell-based; details: mouse, 24 h, read-out: viability, immuntoxicity X [%]
Protocol: (§1) The mouse microglial cells (BV-2) were cultured using standard procedures. The cells were a generous gift from professor Bozena Kaminska-Kaczmarek from Laboratory of Molecular Neurobiology, Neurobiology Center, Nencki Institute of Experimental Biology, Polish Academy of Sciences, Warsaw, Poland. The cells were cultured in Dulbecco’s Modified Eagle’s Medium - high glucose, (DMEM, Glutamx ThermoFisher ) supplemented with 10% fetal bovine serum heat inactivated (ThermoFisher), with added 100 IU/ml penicillin (Sigma Aldrich) and 100 µg/ml streptomycin (Sigma Aldrich). […]
(§2) an area of 175 cm2 (Nunc), and incubated at 37◦C, 5% CO2. For the test of compounds with the BV-2 cells line, microglia cells were seeded on 96-well culture plate (Falcon) at a density of 2x10^4 cells per well in fresh medium. The cells were grown for 24 hours in the incubator (37°C, 5% CO2) before performing experiments. […]
(§3) Preparation of stock solutions of tested compounds
(§4) Stock solutions were prepared in the concentration of 10 mM for test and reference compounds. Minimum 1 mg of each tested compound was weighed and dissolved in appropriate volume of dimethyl sulfoxide. Serial dilutions were prepared in DMSO and then the diluted compounds were transferred to PBS. Before assays eventual precipitation or opalescence was checked. All experiments were performed in duplicates, in three independent experiments. Cell viability was measured after 24 hours of incubation with tested cell line.
(§5) Cell viability was evaluated using the Presto Blue reagent (Thermo Fisher), according to the manufacturer procedures. Following 24 hours of incubation with the tested molecule, PrestoBlue reagent was added to a microplate well in an amount equal to one tenth of the remaining medium volume. The resulting mixture was incubated for 15 minutes at 37°C, and the fluorescence intensity (EX 530; EM 580 nm) was measured in the plate reader POLARstar Omega, (BMG Labtech). The results (viability values) are provided as a percentage of live cells with respect to DMSO (control sample).
(§6) Viability values were calculated as a percentage of live cells with respect to the control sample (DMSO). The negative control was medium without cells. IC 50 was determined by […]
(§7) nonlinear regression analysis using GraphPad Prism 9.0 software. All values are expressed as […]
(§8) Table S10. The viability of cells. neurotoxicity immuntoxicity
(§9) The results (viability values) are provided as a percentage of live cells with respect to DMSO (control sample)
(§10) Table S11. The viability of cells.

[2] = test system: mouse microglial cells (BV-2); test: Cell viability, PrestoBlue (immunotoxicity); assay type: cell-based; details: Mus musculus, BV-2, 24 h
Protocol: as §1, §2, §3, §4, §5, §6, §7, §8, §9, §10

[3] = Metabolic stability in human liver microsomes; assay type: in vitro ADME; details: 120 min incubation with HLMs
Protocol: The in silico prediction of the most probable sites of metabolism was done by MetaSite 6.0.1 software (Molecular Discovery Ltd, Hertfordshire, UK). The metabolic pathways determination in vitro was performed by 120 min compounds incubation with human liver microsomes (HLMs) purchased from Sigma-Aldrich, St. Louis, MO, USA. The reactions were conducted in 10 mM Tris–HCl buffer (pH 7.4) at 37 °C in the presence of NADPH Regeneration System (Promega, Madison, WI, USA). UPLC/MS analyses were done using the Waters ACQUITY TQD system with the TQ Detector (Waters, Milford, USA).
UPLC chromatograms of the reaction mixtures and the proposed structures of metabolites.
Figure S46. UPLC spectra after 120 min incubation of compound 6 with HLMs. 89.57% of the parent compound remained in the reaction mixture. One metabolite (M1, m/z = 460.30) […]
(1 picture or pasted object on this page, not shown here)

[4] = molecular target: T1, human norepinephrine transporter (Homo sapiens, UniProt P23975); test: Norepinephrine Transporter Competition Binding Assay; details: NET Ki
T1 construct: expressed in transfected cells
T1 sequence (P23975 whole entry): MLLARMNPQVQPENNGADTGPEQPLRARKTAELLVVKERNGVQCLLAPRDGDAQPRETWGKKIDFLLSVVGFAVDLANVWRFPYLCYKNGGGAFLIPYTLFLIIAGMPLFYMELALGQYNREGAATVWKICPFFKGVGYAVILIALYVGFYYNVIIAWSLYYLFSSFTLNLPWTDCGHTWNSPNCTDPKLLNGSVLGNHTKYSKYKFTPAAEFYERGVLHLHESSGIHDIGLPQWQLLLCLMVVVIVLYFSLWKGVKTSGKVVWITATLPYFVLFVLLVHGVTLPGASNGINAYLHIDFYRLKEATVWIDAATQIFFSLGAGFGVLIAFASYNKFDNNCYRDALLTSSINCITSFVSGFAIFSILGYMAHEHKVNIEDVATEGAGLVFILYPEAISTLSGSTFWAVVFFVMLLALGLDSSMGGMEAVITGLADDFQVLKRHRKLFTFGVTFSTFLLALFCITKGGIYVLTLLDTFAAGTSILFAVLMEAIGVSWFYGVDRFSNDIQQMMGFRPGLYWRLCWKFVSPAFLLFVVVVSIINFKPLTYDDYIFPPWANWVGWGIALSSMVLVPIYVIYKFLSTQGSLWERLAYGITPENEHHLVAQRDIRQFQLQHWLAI
Protocol: Norepinephrine Transporter Competition Binding Assay
Preparation of solutions of test and reference compounds
First, 10 mM stock solutions of tested compounds were prepared in DMSO. Serial dilutions of compounds were prepared in a 96-well microplate in an assay buffer using the automated pipetting system epMotion 5070. Each compound was tested in 8 concentrations ranging from 10^-3 to 10^-10 M (final concentration).
Radioligand binding was performed using membranes from the MDCK cell line stably transfected with the human norepinephrine transporter. All assays were carried out in duplicates. Volumes of 50 µl working solution of the tested compounds, 50 µl [ 3H]- Nisoxetine (spec. act. 80.2 Ci/mmol, final concentration 4 nM), and 150 µl diluted membranes (5 µg protein per well) prepared in assay buffer (50 mM Tris -HCl, pH 7.4; 120 mM NaCl; 5 mM KCl) were transferred to polypropylene 96-well microplate using 96-wells pipetting station Rainin Liquidator. Desipramine (10 μM) was used to define nonspecific binding. The microplate was covered with sealing tape, mixed, and incubated for 60 minutes at 4 °C. The reaction was terminated by rapid filtration through GF/B filter mate presoaked with 0.5% polyethyleneimine for 30 minutes. Five rapid washes with 300 µl 50 mM Tris buffer (4 °C, pH 7.4) were performed using a 96 -well FilterMate harvester. The filter mates were dried at 37 °C in the forced air fan incubator, and then, solid scintillator MeltiLex B/HS was melted on filter mates at 90 °C for 4 minutes. Radioactivity was counted in the MicroBeta2 scintillation counter (PerkinElmer). Data were fitted to a one -site curve-fitting equation with Prism 8.0 (GraphPad Software), and Ki values were estimated from the […]
Result of Norepinephrine Transporter Competition Binding Assay
Table S9. Results of binding to norepinephrine transporter (NET) of tested compounds COMPOUND Ki [nM] pKi Ki [nM] pKi Ki [nM] pKi

O[C@H](CNCC1CC1)[C@H](Cc1ccccc1)NC1c2ccccc2-c2ccccc21 [Compound 6]
viability at 24 h, 0.1 µM ([1]; BV-2, 0.1 µM): 102% | viability at 24 h, 1 µM ([1]; BV-2, 1 µM): 103% | viability at 24 h, 10 µM ([1]; BV-2, 10 µM): 94.8% | viability at 24 h, 50 µM ([1]; BV-2, 50 µM): 2% | viability at 24 h, 100 µM ([1]; BV-2, 100 µM, vs DMSO): 1.3% | IC50 ([2]; read-out: IMMUNOTOXICTY IC50): 18900 nM | IC50 ([2]; read-out: IMMUNOTOXICTY pIC (converted)): 19100 nM | parent compound remaining [3]: 90% and 89.57% | Ki [4]: 837 nM | Ki ([4]; third Ki column (likely the mean)): 774 nM | Ki ([4]; [3H]-Nisoxetine): 714 nM
